We go through 23 compounds from patent US20260138990A1, “TRICYCLIC FUSED IMIDAZOLE COMPOUNDS AS CD38 MODULATORS AND USES THEREOF” (AEOVIAN PHARMACEUTICALS, INC., priority 2023, published 2026).

The target in one experiment is T1, mouse CD38 (Mus musculus, UniProt P56528).
T1 construct: purchased Bio-Techne GmbH 4947-AC
T1 sequence (P56528 1-304): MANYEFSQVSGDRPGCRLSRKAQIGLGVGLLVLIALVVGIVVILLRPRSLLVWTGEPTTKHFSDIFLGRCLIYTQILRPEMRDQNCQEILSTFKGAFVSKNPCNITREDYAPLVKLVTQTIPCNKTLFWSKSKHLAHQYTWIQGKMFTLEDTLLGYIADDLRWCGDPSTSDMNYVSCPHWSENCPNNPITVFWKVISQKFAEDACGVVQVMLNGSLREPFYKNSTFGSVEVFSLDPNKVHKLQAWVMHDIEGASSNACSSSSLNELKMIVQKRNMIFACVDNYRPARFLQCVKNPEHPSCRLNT
As to the kind of experiment: NAD+ cyclase activity assay with mouse recombinant CD38 protein (ε-NAD fluorescence). The class given is biochemical. Particulars: 0.6 nM mouse CD38, substrate ε-NAD, 30 min preincubation, fluorescence 300/410 nm. The method, then: (§1) Example 4: NAD^+ Cydase Activity Assay with Human or Mouse Recombinant CD38 Protein
(§2) The following assay was used to determine the ability of compounds of the invention to inhibit the hydrolysis of NAD^+ by the human or mouse enzyme, CD38.
(§3) Reaction buffer: 40 mM HEPES/NaOH pH 7.5, 250 mM sucrose, 0.01% Tween
(§4) Final concentrations: 0.6 nM mouse CD38 (4947-AC, Bio-Techne GmbH) 1.9 nM human CD38 (AVI2404, Bio-Techne GmbH)
(§5) Substrate: […] Nicotinamide 1,N6-ethenoadenine dinucleotide (&-NAD)
(§6) Read-out: Fluorescence intensity (extinction 300 nm/emission 410 nm)
(§7) Required reaction buffer, required CD38 concentration in reaction buffer and required e-NAD concentration in reaction buffer were prepared. Thereafter, 8 μL of CD38 in reaction buffer was added to High Control and compound concentration wells in 384 well plate (Corning #4514, 384 well, nonbinding surface, low volume, round bottom) and 8 μL of reaction buffer to Low Control. Compound dilutions were transferred via pintool technology that transfers 42.5 nL compound dilutions (12-point dose-response with factor three dilutions in 100% DMSO) well-to-well. Plate was subsequently shaken for 15 s at 1450 rpm and sealed for incubation for 30 min at room temperature. Thereafter, 2 μL of e-NAD in reaction buffer were added with Integra Voyager. After shaking for 15 s at 1450 rpm, plate was sealed, and assay signal were measured continuously with PHERAstar® fluorescence intensity module (extinction 300 nm/emission 410 nm).
(§8) Dose-response curves were constructed using twelve-pointfactor three dilutions in triplicates per plate. High control (full enzyme activity) was set to assay signal of CD38 and e-NAD in presence of vehicle (DMSO) and Low control (full enzyme inhibition) was set to assay signal of e-NAD and vehicle (DMSO) in absence of CD38. For data analysis, fluorescent signal of traces corresponding to each compound concentration and High and Low control were monitored over time. Each run, High Control (full enzyme activity) was fitted to Linear equation via GraphPad Prism to determine CD38 activity from the slope and determine the time interval of linear phase of reaction to account for minor fluctuations. Thereafter, slopes of all compound concentrations were determined via fitting to same linear equation (GraphPad Prism) over the same time interval as determined for High control. […] Unless otherwise stated, fitting of curves were fixed to 100%-inhibition and unlocked for 0%-inhibition.

The target in another experiment is T2, human CD38 (Homo sapiens, UniProt P28907).
T2 construct: purchased Bio-Techne GmbH AVI2404
T2 sequence (P28907 1-300): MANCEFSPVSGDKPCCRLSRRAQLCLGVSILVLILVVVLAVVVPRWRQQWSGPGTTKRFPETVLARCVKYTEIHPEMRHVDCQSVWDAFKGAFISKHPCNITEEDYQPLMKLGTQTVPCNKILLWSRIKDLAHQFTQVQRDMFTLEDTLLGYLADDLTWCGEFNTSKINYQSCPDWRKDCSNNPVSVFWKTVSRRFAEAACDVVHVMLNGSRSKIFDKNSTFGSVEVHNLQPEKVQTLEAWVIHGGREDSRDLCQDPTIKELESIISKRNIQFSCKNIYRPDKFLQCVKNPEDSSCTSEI
As to the kind of experiment: NAD+ cyclase activity assay with human recombinant CD38 protein (ε-NAD fluorescence). The class given is biochemical. Particulars: 1.9 nM human CD38, substrate ε-NAD, 30 min preincubation, fluorescence 300/410 nm. As to the method:
as §1, §2, §3, §4, §5, §6, §7, §8

Molecules are shown by their SMILES. Counter-ions that a name gives are not always drawn. Where only a bound is given, the exact number is not on record here.

One may read the IC50 as the concentration that gives 50% inhibition. As for `CS(=O)(=O)c1cccc(NC(=O)c2ccc3c(c2)-c2cncn2CCO3)c1` [Compound 18A, N-(3-(Methylsulfonyl)phenyl)-5,6-dihydrobenzo[f]imidazo[1,5-d][1,4]oxazepine-10-carboxamide], the results for the IC50 at mouse CD38 and at human CD38 were under 0.001 µM and under 0.03 µM, respectively.

With `O=C(Nc1ccc2c(c1)CCS2(=O)=O)c1ccc2c(c1)-c1cncn1CCO2` [Compound 19A, N-(1,1-Dioxido-2,3-dihydrobenzo[b]thiophen-5-yl)-5,6-dihydrobenzo[f]imidazo[1,5-d][1,4]oxazepine-10-carboxamide], the IC50 on mouse CD38 was under 0.001 µM; at human CD38, under 0.03 µM.

In the case of `CO[C@H]1CC[C@H](NC(=O)c2ccc3c(c2)-c2cncn2CCO3)CC1` [Compound 20A, N-((1r,4r)-4-Methoxycyclohexyl)-5,6-dihydrobenzo[f]imidazo[1,5-d][1,4]oxazepine-10-carboxamide], the IC50 at mouse CD38 is under 0.001 µM; at human CD38 it was under 0.03 µM.

As for `CS(=O)(=O)c1cc(NC(=O)c2ccc3c(c2)-c2cncn2CCO3)ccc1F` [Compound 21A, N-(4-Fluoro-3-(methylsulfonyl)phenyl)-5,6-dihydrobenzo[f]imidazo[1,5-d][1,4]oxazepine-10-carboxamide], the half-maximal inhibitory concentration (IC50) on mouse CD38 is under 0.001 µM; at human CD38 it was under 0.03 µM.

`CS(=O)(=O)c1cncc(NC(=O)c2ccc3c(c2)-c2cncn2CCO3)c1` [Compound 22A, N-(5-(Methylsulfonyl)pyridin-3-yl)-5,6-dihydrobenzo[f]imidazo[1,5-d][1,4]oxazepine-10-carboxamide]: the IC50 is 0.001 to 0.01 µM at mouse CD38 and under 0.03 µM at human CD38.

As to `CC(C)(C)OC(=O)N1Cc2ccc(NC(=O)c3ccc4c(c3)-c3cncn3CCO4)cc2C1` [Compound 23A, tert-Butyl 5-(5,6-dihydrobenzo[f]imidazo[1,5-d][1,4]oxazepine-10-carboxamido)isoindoline-2-carboxylate], the IC50 on mouse CD38 was in the range of 0.01 to 0.1 µM; on human CD38, 0.03 to 0.1 µM.

As to `O=C(Nc1ccc2c(c1)CNC2)c1ccc2c(c1)-c1cncn1CCO2` [Compound 24A, N-(Isoindolin-5-yl)-5,6-dihydrobenzo[f]imidazo[1,5-d][1,4]oxazepine-10-carboxamide hydrochloride], the values for the IC50 at mouse CD38 and at human CD38 were 0.01 to 0.1 µM and 0.03 to 0.1 µM, respectively.

Consider `CS(=O)(=O)N1Cc2ccc(NC(=O)c3ccc4c(c3)-c3cncn3CCO4)cc2C1` [Compound 25A, N-(2-(Methylsulfonyl)isoindolin-5-yl)-5,6-dihydrobenzo[f]imidazo[1,5-d][1,4]oxazepine-10-carboxamide], for which the IC50 on mouse CD38 is 0.001 to 0.01 µM; on human CD38, under 0.03 µM.

With `O=C(N[C@@H]1CCCOC1)c1ccc2c(c1)-c1cncn1CCCO2` [Compound 26A, (R)—N-(Tetrahydro-2H-pyran-3-yl)-6,7-dihydro-5H-benzo[b]imidazo[5,1-d][1,5]oxazocine-11-carboxamide], the values for the IC50 on mouse CD38 and at human CD38 were 0.01 to 0.1 µM and 0.1 to 1 µM, respectively.

Regarding `COCCNc1nc2ccc(C(=O)N[C@@H]3CCCOC3)cc2n2cncc12` [Compound 27A, (R)-4-((2-Methoxyethyl)amino)-N-(tetrahydro-2H-pyran-3-yl)imidazo[1,5-a]quinoxaline-8-carboxamide], the IC50 on mouse CD38 lay within 0.001 to 0.01 µM; at human CD38 it was 0.1 to 1 µM.

On to `CNc1nc2ccc(C(=O)N[C@@H]3CCCOC3)cc2n2cncc12` [Compound 28A, (R)-4-(Methylamino)-N-(tetrahydro-2H-pyran-3-yl)imidazo[1,5-a]quinoxaline-8-carboxamide], for which the IC50 was 0.001 to 0.01 µM at mouse CD38 and under 0.03 µM on human CD38.

As to `COCCS(=O)(=O)N[C@H]1CC[C@H](NC(=O)c2ccc3c(c2)-c2cncn2CCO3)CC1` [Compound 29A, N-((1r,4r)-4-((2-Methoxyethyl)sulfonamido)cyclohexyl)-5,6-dihydrobenzo[f]imidazo[1,5-d][1,4]oxazepine-10-carboxamide], the IC50 is 0.001 to 0.01 µM on mouse CD38 and under 0.03 µM on human CD38.

`O=C(Nc1ccc2c(n1)OCCO2)c1ccc2c(c1)-c1cncn1CCO2` [Compound 30A, N-(2,3-Dihydro-[1,4]dioxino[2,3-b]pyridin-6-yl)-5,6-dihydrobenzo[f]imidazo[1,5-d][1,4]oxazepine-10-carboxamide]: the IC50 on mouse CD38 is 0.001 to 0.01 µM; on human CD38 it was under 0.03 µM.

For the compound `O=C(Nc1cnc2c(c1)OCCO2)c1ccc2c(c1)-c1cncn1CCO2` [Compound 31A, N-(2,3-Dihydro-[1,4]dioxino[2,3-b]pyridin-7-yl)-5,6-dihydrobenzo[f]imidazo[1,5-d][1,4]oxazepine-10-carboxamide], the IC50 on mouse CD38 is 0.001 to 0.01 µM; on human CD38, under 0.03 µM.

Consider `O=C(Nc1ccc2c(c1)OCC2)c1ccc2c(c1)-c1cncn1CCO2` [Compound 32A, N-(2,3-Dihydrobenzofuran-6-yl)-5,6-dihydrobenzo[f]imidazo[1,5-d][1,4]oxazepine-10-carboxamide], for which the IC50 on mouse CD38 is 0.001 to 0.01 µM; on human CD38, under 0.03 µM.

In the case of `O=C(Nc1ccc2c(c1)COC2)c1ccc2c(c1)-c1cncn1CCO2` [Compound 33A, N-(1,3-Dihydroisobenzofuran-5-yl)-5,6-dihydrobenzo[f]imidazo[1,5-d][1,4]oxazepine-10-carboxamide], the results for the IC50 on mouse CD38 and on human CD38 were 0.001 to 0.01 µM and under 0.03 µM, respectively.

On to `O=C(Nc1ccc2nc[nH]c2c1)c1ccc2c(c1)-c1cncn1CCO2` [Compound 34A, N-(1H-Benzo [d]imidazol-6-yl)-5,6-dihydrobenzo[f]imidazo[1,5-d][1,4]oxazepine-10-carboxamide], for which the IC50 is 0.001 to 0.01 µM at mouse CD38 and under 0.03 µM on human CD38.

For the compound `CN(C)c1nc2ccc(C(=O)N[C@@H]3CCCOC3)cc2n2cncc12` [Compound 35A, (R)-4-(Dimethylamino)-N-(tetrahydro-2H-pyran-3-yl)imidazo[1,5-a]quinoxaline-8-carboxamide], the IC50 at mouse CD38 is over 0.1 µM; at human CD38 it was over 1 µM.

For the compound `Cn1ccc(NC(=O)c2ccc3c(c2)-c2cncn2CCO3)cc1=O` [Compound 36A, N-(1-Methyl-2-oxo-1,2-dihydropyridin-4-yl)-5,6-dihydrobenzo[f]imidazo[1,5-d][1,4]oxazepine-10-carboxamide], the IC50 on mouse CD38 was under 0.001 µM; at human CD38 it was under 0.03 µM.

On to `CCCS(=O)(=O)N[C@H]1CC[C@H](NC(=O)c2ccc3c(c2)-c2cncn2CCO3)CC1` [Compound 37A, N-((1r,4r)-4-(Propylsulfonamido)cyclohexyl)-5,6-dihydrobenzo[f]imidazo[1,5-d][1,4]oxazepine-10-carboxamide], for which the IC50 is 0.001 to 0.01 µM at mouse CD38 and under 0.03 µM on human CD38.

As for `CC1(C)Cn2cncc2-c2cc(C(=O)N[C@@H]3CCCOC3)ccc2O1` [Compound 38A, (R)-6,6-Dimethyl-N-(tetrahydro-2H-pyran-3-yl)-5,6-dihydrobenzo[f]imidazo[1,5-d][1,4]oxazepine-10-carboxamide], the IC50 is 0.01 to 0.1 µM at mouse CD38 and over 1 µM on human CD38.

With `O=C(Nc1ccc2ncoc2c1)c1ccc2c(c1)-c1cncn1CCO2` [Compound 39A, N-(Benzo[d]oxazol-6-yl)-5,6-dihydrobenzo[f]imidazo[1,5-d][1,4]oxazepine-10-carboxamide], the results for the IC50 on mouse CD38 and on human CD38 were 0.001 to 0.01 µM and under 0.03 µM, respectively.

In the case of `O=C(Nc1cnc2scnc2c1)c1ccc2c(c1)-c1cncn1CCO2` [Compound 40A, N-(Thiazolo[5,4-b]pyridin-6-yl)-5,6-dihydrobenzo[f]imidazo[1,5-d][1,4]oxazepine-10-carboxamide], the results for the IC50 on mouse CD38 and on human CD38 were 0.001 to 0.01 µM and under 0.03 µM, respectively.
